Source: US11759461B2, “Small molecule inhibitors of cancer stem cells and mesenchymal cancer types” (The Scripps Research Institute, priority 2017, dated 2023)

What follows are molecules tested on FOXC2-expressing HMLER cells (assay: Cell Titer Glo viability of FOXC2-HMLER cells (high throughput screen and 10-point response)). Conditions: Homo sapiens; scored relative to parent compound 2; 72 hours; read-out: Activity Score, inhibition of FOXC2-expressing HMLER cells by Formula II compounds.
Assay type: cell-based
Summary of the method: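 FOXC2-HMLER cells (HMLER run in parallel) seeded at 1,000 cells/well in MEGM, attached 1 h, then given compound in DMSO (2 μM in the screen). After 72 h, viability was read by Cell Titer Glo luminescence.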

| Structure (SMILES) | IC50 |
| --- | --- |
| CCOc1ccc(NC(=O)Cn2c(=O)c(CNc3ccccc3)cc3cc(OC)c(OC)cc32)cc1 [Compound 2GI] | > 20 µM |
| Cc1ccc(NC(=O)Cn2c(=O)c(CNc3ccccc3)cc3cc4c(cc32)OCCO4)cc1 [Compound 2GJ] | > 20 µM |
| COc1ccc(NCc2cc3ccc(OC)cc3n(CC(=O)Nc3ccccc3OC)c2=O)cc1 [Compound 2GK] | > 20 µM |
| CCc1ccc(NCc2cc3ccc(OC)cc3n(CC(=O)NCCc3ccccc3)c2=O)cc1 [Compound 2GL] | > 20 µM |
| CCOC(=O)c1ccc(NC(=O)Cn2c(=O)c(CNc3ccc(C)cc3)cc3ccc(OC)cc32)cc1 [Compound 2GM] | > 20 µM |
| Cc1ccccc1NC(=O)Cn1c(=O)c(CNc2ccccc2)cc2cc3c(cc21)OCCO3 [Compound 2GN] | > 20 µM |
| COc1ccc(NC(=O)Cn2c(=O)c(CNc3ccccc3)cc3cc4c(cc32)OCCO4)cc1 [Compound 2GO] | > 20 µM |
| COc1ccc2cc(CNc3ccc(C)cc3)c(=O)n(CC(=O)NCc3ccc(C)cc3)c2c1 [Compound 2GP] | > 20 µM |
| COc1ccc2cc(CNc3ccccc3)c(=O)n(CC(=O)NCc3ccc(C)cc3)c2c1 [Compound 2GQ] | > 20 µM |
| COc1ccc(NCc2cc3ccc(OC)cc3n(CC(=O)Nc3ccc(C)cc3Cl)c2=O)cc1 [Compound 2GR] | > 20 µM |
| CCc1ccc(NCc2cc3ccc(OC)cc3n(CC(=O)Nc3cc(Cl)ccc3C)c2=O)cc1 [Compound 2GS] | > 20 µM |
| COc1ccc2cc(CNc3ccc(C)cc3)c(=O)n(CC(=O)NCc3ccccc3)c2c1 [Compound 2GT] | > 20 µM |
| Cc1cccc(C)c1NC(=O)Cn1c(=O)c(CNc2ccccc2)cc2cc3c(cc21)OCCO3 [Compound 2GU] | > 20 µM |
| COc1cc(NC(=O)Cn2c(=O)c(CNc3ccccc3)cc3ccc(OC)cc32)cc(OC)c1 [Compound 2GV] | > 20 µM |
| CCOc1ccc(NC(=O)Cn2c(=O)c(CNc3ccccc3)cc3cc4c(cc32)OCCO4)cc1 [Compound 2GW] | > 20 µM |
| COc1ccc2cc(CNc3ccc(C)cc3)c(=O)n(CC(=O)Nc3ccc(OC)c(Cl)c3)c2c1 [Compound 2GX] | > 20 µM |
| COc1ccc(NCc2cc3ccc(C)cc3n(CC(=O)Nc3ccc(C)cc3)c2=O)cc1OC [Compound 2GY] | > 20 µM |
| COc1ccc2cc(CNc3ccc(C)cc3)c(=O)n(CC(=O)Nc3ccccc3C)c2c1 [Compound 2GZ] | > 20 µM |
| COc1ccc2cc(CNc3ccc(C)cc3)c(=O)n(CC(=O)Nc3ccc(F)c(F)c3)c2c1 [Compound 2G] | 1 to 20 µM |
| CCc1ccc(NCc2cc3ccc(OC)cc3n(CC(=O)Nc3ccccc3)c2=O)cc1 [Compound 2HA] | > 20 µM |
| COc1ccc2cc(CNc3ccccc3)c(=O)n(CC(N)=O)c2c1 [Compound 2HB] | > 20 µM |
| CCc1ccc(NCc2cc3ccc(OC)cc3n(CC(=O)Nc3ccccc3Cl)c2=O)cc1 [Compound 2HC] | > 20 µM |
| COc1ccc2cc(CNc3ccc(C)cc3)c(=O)n(CC(=O)Nc3ccccc3OC)c2c1 [Compound 2HD] | > 20 µM |
| COc1ccc(NCc2cc3ccc(OC)cc3n(CC(=O)Nc3cc(C)ccc3C)c2=O)cc1 [Compound 2HE] | > 20 µM |
| COc1ccc2cc(CNc3ccccc3)c(=O)n(CC(=O)Nc3ccc(OC)c(OC)c3)c2c1 [Compound 2HF] | > 20 µM |
| CCc1ccc(NCc2cc3ccc(OC)cc3n(CC(=O)Nc3cccc(C)c3)c2=O)cc1 [Compound 2HG] | > 20 µM |

| Structure (SMILES) | IC50 |
| --- | --- |
| COc1ccc2cc(CNc3ccc(C)cc3)c(=O)n(CC(=O)NCCc3ccccc3)c2c1 [Compound 2HH] | > 20 µM |
| COc1ccc(NCc2cc3cc(OC)c(OC)cc3n(CC(=O)Nc3cccc(C)c3)c2=O)cc1 [Compound 2HI] | > 20 µM |
| COc1ccc2cc(CNc3ccc(C)cc3)c(=O)n(CC(=O)Nc3cccc(Cl)c3)c2c1 [Compound 2HJ] | > 20 µM |
| CCc1ccc(NCc2cc3ccc(OC)cc3n(CC(=O)Nc3ccc(F)cc3)c2=O)cc1 [Compound 2HK] | > 20 µM |
| COc1ccc2c(c1)cc(CNc1ccc(OC)c(OC)c1)c(=O)n2CC(=O)Nc1ccc(C)cc1 [Compound 2HL] | > 20 µM |
| COc1ccc(NC(=O)c2ccccc2NC(=O)CN2C(=O)c3ccccc3C2=O)cc1 [Compound 2HM] | > 20 µM |
| COc1ccc2cc(CNc3ccccc3)c(=O)n(CC(=O)Nc3cc(C)cc(C)c3)c2c1 [Compound 2HN] | > 20 µM |
| COc1ccc(NCc2cc3ccc(C)cc3n(CC(=O)Nc3ccc(C)c(C)c3)c2=O)cc1OC [Compound 2HO] | > 20 µM |
| COc1ccc(NCc2cc3cc4c(cc3n(CC(=O)Nc3c(C)cccc3C)c2=O)OCCO4)cc1 [Compound 2HP] | > 20 µM |
| CCc1ccc(NCc2cc3ccc(OC)cc3n(CC(=O)Nc3cc(C)cc(C)c3)c2=O)cc1 [Compound 2HQ] | > 20 µM |
| CCc1ccc(NCc2cc3cc(OC)c(OC)cc3n(CC(=O)Nc3ccc(C)cc3)c2=O)cc1 [Compound 2HR] | > 20 µM |
| COc1ccccc1NC(=O)Cn1c(=O)c(CNc2ccc(C)cc2)cc2cc(OC)c(OC)cc21 [Compound 2HS] | > 20 µM |
| COc1ccc2cc(CNc3ccccc3)c(=O)n(CC(=O)Nc3ccccc3C)c2c1 [Compound 2HT] | > 20 µM |
| COc1ccc(NC(=O)Cn2c(=O)c(CNc3ccc(OC)c(OC)c3)cc3ccc(C)cc32)cc1 [Compound 2HU] | > 20 µM |
| COc1ccc2cc(CNc3ccc(C)cc3)c(=O)n(CC(=O)Nc3ccc(C(C)=O)cc3)c2c1 [Compound 2HV] | > 20 µM |
| COc1ccc2cc(CNc3ccc(OC)c(OC)c3)c(=O)n(CC(=O)Nc3ccc(C)cc3)c2c1 [Compound 2HW] | > 20 µM |
| COc1cccc(NC(=O)Cn2c(=O)c(CNc3ccc(C)cc3)cc3ccc(OC)cc32)c1 [Compound 2HX] | > 20 µM |
| COc1cccc(CNC(=O)Cn2c(=O)c(CNc3ccc(C)cc3)cc3ccc(OC)cc32)c1 [Compound 2HY] | > 20 µM |
| COc1ccc2cc(CNc3ccc(C)cc3)c(=O)n(CC(=O)NCc3ccc(Cl)cc3)c2c1 [Compound 2HZ] | > 20 µM |
| COc1ccc2cc(CNc3ccc(C)cc3)c(=O)n(CC(=O)Nc3cccc(Cl)c3C)c2c1 [Compound 2H] | 1 to 20 µM |
| COc1ccc2cc(CNc3ccccc3)c(=O)n(CC(=O)NCc3ccc(F)cc3)c2c1 [Compound 2IA] | > 20 µM |
| COc1ccc(NCc2cc3cc(OC)c(OC)cc3n(CC(=O)Nc3ccccc3)c2=O)cc1 [Compound 2IB] | > 20 µM |
| COc1ccc(NCc2cc3ccc(OC)cc3n(CC(=O)Nc3cccc(OC)c3)c2=O)cc1 [Compound 2IC] | > 20 µM |
| COc1ccc(NCc2cc3cc4c(cc3n(CC(=O)Nc3cccc(C)c3)c2=O)OCCO4)cc1 [Compound 2ID] | > 20 µM |
| COc1cc2cc(CNc3ccccc3)c(=O)n(CC(=O)Nc3cccc(Cl)c3)c2cc1OC [Compound 2IE] | > 20 µM |
| COc1cc(NC(=O)Cn2c(=O)c(CNc3ccccc3)cc3ccc(C)cc32)cc(OC)c1 [Compound 2IF] | > 20 µM |

| Structure (SMILES) | IC50 |
| --- | --- |
| COc1ccc(NCc2cc3cc4c(cc3n(CC(=O)Nc3cc(C)cc(C)c3)c2=O)OCCO4)cc1 [Compound 2IG] | > 20 µM |
| CCc1ccc(NCc2cc3cc(OC)c(OC)cc3n(CC(=O)Nc3cc(C)cc(C)c3)c2=O)cc1 [Compound 2IH] | > 20 µM |
| CCOc1ccc(NC(=O)Cn2c(=O)c(CNc3ccccc3)cc3ccc(OC)cc32)cc1 [Compound 2II] | > 20 µM |
| COc1ccc(NCc2cc3cc(C)ccc3n(CC(=O)Nc3cc(C)cc(C)c3)c2=O)cc1 [Compound 2IJ] | > 20 µM |
| CCc1ccc(NC(=O)Cn2c(=O)c(CNc3ccc(OC)cc3)cc3cc4c(cc32)OCCO4)cc1 [Compound 2IK] | > 20 µM |
| CCc1ccc(NCc2cc3ccc(OC)cc3n(CC(=O)Nc3ccc(OC)cc3)c2=O)cc1 [Compound 2IL] | > 20 µM |
| COc1ccc2cc(CNc3ccc(C)cc3)c(=O)n(CC(=O)Nc3c(C)cccc3C)c2c1 [Compound 2IM] | > 20 µM |
| CCc1ccc(NCc2cc3cc(OC)c(OC)cc3n(CC(=O)Nc3cc(C)ccc3C)c2=O)cc1 [Compound 2I] | 1 to 20 µM |
| CCc1ccc(NCc2cc3ccc(OC)cc3n(CC(=O)Nc3ccc(C)cc3C)c2=O)cc1 [Compound 2J] | 1 to 20 µM |
| COc1ccc2cc(CNc3ccc(C)cc3)c(=O)n(CC(=O)Nc3c(C)cc(C)cc3C)c2c1 [Compound 2K] | 1 to 20 µM |
| COc1ccc(NCc2cc3ccc(C)cc3n(CC(=O)Nc3cc(C)ccc3C)c2=O)cc1OC [Compound 2L] | 1 to 20 µM |
| COc1ccc2cc(CNc3ccc(C)cc3)c(=O)n(CC(=O)Nc3ccc(C)cc3Cl)c2c1 [Compound 2M] | 1 to 20 µM |
| CCc1ccc(NCc2cc3cc4c(cc3n(CC(=O)Nc3ccccc3CC)c2=O)OCCO4)cc1 [Compound 2N] | 1 to 20 µM |
| COc1ccc2cc(CNc3ccc(C)cc3)c(=O)n(CC(=O)Nc3ccccc3F)c2c1 [Compound 2O] | 1 to 20 µM |
| CCc1ccc(NCc2cc3cc4c(cc3n(CC(=O)Nc3ccccc3C)c2=O)OCCO4)cc1 [Compound 2P] | 1 to 20 µM |
| COc1ccc2cc(CNc3ccc(C)cc3)c(=O)n(CC(=O)Nc3ccc(Cl)cc3)c2c1 [Compound 2Q] | 1 to 20 µM |
| COc1ccc2cc(CNc3ccccc3)c(=O)n(CC(=O)Nc3cc(C)ccc3C)c2c1 [Compound 2R] | 1 to 20 µM |
| CCOc1ccc(NC(=O)Cn2c(=O)c(CNc3ccc(C)cc3)cc3cc4c(cc32)OCCO4)cc1 [Compound 2S] | 1 to 20 µM |
| CCc1ccc(NCc2cc3ccc(OC)cc3n(CC(=O)Nc3ccccc3F)c2=O)cc1 [Compound 2T] | 1 to 20 µM |
| COc1ccc2cc(CNc3ccc(C)cc3)c(=O)n(CC(=O)Nc3cc(C)ccc3C)c2c1 [Compound 2U] | 1 to 20 µM |
| COc1cc2cc(CNc3ccccc3)c(=O)n(CC(=O)Nc3ccc(C(C)C)cc3)c2cc1OC [Compound 2V] | 1 to 20 µM |
| COc1ccc(NCc2cc3cc4c(cc3n(CC(=O)Nc3cc(C)ccc3C)c2=O)OCCO4)cc1 [Compound 2W] | 1 to 20 µM |
| COc1cc2cc(CNc3ccccc3)c(=O)n(CC(=O)Nc3cc(C)ccc3C)c2cc1OC [Compound 2X] | 1 to 20 µM |
| COc1cc2cc(CNc3ccccc3)c(=O)n(CC(=O)Nc3cccc(Cl)c3C)c2cc1OC [Compound 2Y] | 1 to 20 µM |
